Measured values: the NIST ThermoML archive (doi:10.1016/j.fluid.2004.11.020)
Numbers after ± are expanded uncertainties.

Assay: Solid-liquid equilibrium temperature
Settings: closed cylinder with variable piston

CCCCCCCCCCCCCCCCCC [octadecane]
Crystal
Settings	Solid-liquid equilibrium temperature [K]
8860 kPa	303.15 ± 0.3
49600 kPa	313.15 ± 0.57
94900 kPa	323.15 ± 0.88
144780 kPa	333.15 ± 1.2
199220 kPa	343.15 ± 1.5
258230 kPa	353.15 ± 1.8

CCCCCCCCCCCCCCCC [hexadecane]
Crystal
Settings	Solid-liquid equilibrium temperature [K]
9210 kPa	293.15 ± 0.3
50650 kPa	303.15 ± 0.58
95560 kPa	313.15 ± 0.9
143920 kPa	323.15 ± 1.2
195740 kPa	333.15 ± 1.5
251030 kPa	343.15 ± 1.9

CCCCCCCCCCCCC [tridecane]
Crystal 1
Settings	Solid-liquid equilibrium temperature [K]
100 kPa	268.21 ± 0.24
133010 kPa	293.15 ± 1
197120 kPa	303.15 ± 1.2
265400 kPa	313.15 ± 1.6
337830 kPa	323.15 ± 1.9
414420 kPa	333.15 ± 2.2
495170 kPa	343.15 ± 2.5
